Legend:
Assay type in all cases: in vivo, Male Wistar rats
[1] = system: remnant kidney (RK) rats; assay: Proteinuria in remnant kidney rats
Method: Male Wistar rats (295-340 g) were used to produce rats with remnant kidney (RK) as follows. […] Rats were then assigned to one of four treatment groups: Group 1, RK control rats (n=7); Group 2, RK+febuxostat (Fx) rats (n=8); Group 3, RK+oxonic acid (OA) rats (n=6); and Group 4, RK+OA+Fx (n=10). Oxonic acid (OA) (Sigma-Aldrich, St Louis Mo., USA), administered at 750 mg/kg body weight daily by oral gavage, was given starting the day after the ⅚ nephrectomy. […] Body weight (beginning just before surgery) and food and water intakes were measured daily. Systolic blood pressure, measured in conscious rats by a tail cuff sphygmomanometer, and plasma uric acid (UA) levels were measured at just before surgery (namely, at baseline) and at the end of the four weeks. Proteinuria was measured at baseline and at the end of two and four weeks. […] Food and water intake were determined daily. Systolic blood pressure (SBP) was measured by a tail-cuff sphygmomanometer using an automated system (XBP-100; Kent Scientific Co, Torrington, Conn., USA) in conscious animals. […] Plasma uric acid was quantified using a commercial kit (Diagnostic Chemicals Ltd, Charlottetown, PEI, Canada). […]

[2] = system: remnant kidney (RK) rats; assay: Micropuncture procedure to assess glomerular hemodynamics; settings: for GFR / Kf / PGC / QA / SNGFR / MAP: end of four weeks; for MAP: under anesthesia
Method: Male Wistar rats (295-340 g) were used to produce rats with remnant kidney (RK) as follows. […] Rats were then assigned to one of four treatment groups: Group 1, RK control rats (n=7); Group 2, RK+febuxostat (Fx) rats (n=8); […] Oxonic acid (OA) (Sigma-Aldrich, St Louis Mo., USA), administered at 750 mg/kg body weight daily by oral gavage, was given starting the day after the 5⁄6 nephrectomy. […] All groups were treated for four weeks. Body weight (beginning just before surgery) and food and water intakes were measured daily. Systolic blood pressure, measured in conscious rats by a tail cuff sphygmomanometer, and plasma uric acid (UA) levels were measured at just before surgery (namely, at baseline) and at the end of the four weeks. Proteinuria was measured at baseline and at the end of two and four weeks. A renal micropuncture procedure along with systemic blood pressure monitoring under pentobarbital anesthesia was performed at the end of four weeks followed by morphologic evaluation of the renal preglomerular microvasculature. Animals were anesthetized with pentobarbital sodium (30 mg/kg, intraperitoneal (ip)) and placed on a thermoregulated table to maintain body temperature at 37° C. Trachea, jugular veins, femoral arteries and the left ureter were catheterized with polyethylene tubing (PE-240, PE-50, and PE-10). The left kidney was exposed, placed in a Lucite holder, sealed with agar, and covered with Ringer's solution. Mean arterial pressure (MAP) was monitored with a pressure transducer (Model p23 db; Gould, San Juan, Puerto Rico) connected to the catheter in the femoral artery and recorded on a polygraph (Grass Instruments, Quincy, Mass., USA). Blood samples were taken periodically and replaced with blood from a donor rat. Rats were maintained under euvolemic conditions by infusion of 10 mL/kg of body weight of isotonic rat plasma during surgery, followed by an infusion of 25%, polyfructosan, at 2.2 ml/h (Inutest; Fresenius Kabi, Linz, Austria). After 60 minutes, five to seven samples of proximal tubular fluid were obtained to determine flow rate and polyfructosan concentrations. Intratubular pressure under free-flow (FF) and stop-flow (SFP) conditions and peritubular capillary pressure (Pc) were measured in other proximal tubules with a servo-null device (Servo Nulling Pressure System; Instrumentation for Physiology and Medicine, San Diego, Calif., USA). Glomerular colloid osmotic pressure was estimated from protein concentrations obtained from blood of the femoral artery (Ca) and surface efferent arterioles (Ce). Polyfructosan was measured in plasma and urine samples by the anthrone-based technique described by Davidson and […] in “Simplification of the anthrone method for the determination of inulin in clearance studies,” J Lab Clin Med. 62:351-356 (1963), the contents of which are herein incorporated by reference. In brief, plasma samples were deproteinated first with trichloroacetic acid. After centrifugation, the supernatant was used for polyfructosan measurement. Polyfructosan concentrations in plasma and urine samples were assessed by the addition of anthrone reagent followed by incubation at 45° C. for 50 minutes and reading in a spectrophotometer set at wavelength of 620 nm. […] Total GFR was calculated using the following formula: GFR=(U×V)/P, where U is the polyfructosan concentration in urine, V is urine flow rate, and P is the polyfructosan concentration in plasma. The volume of fluid collected from individual proximal tubules was estimated from the length of the fluid column in a constant-bore capillary tube of known internal diameter. The concentration of tubular polyfructosan was measured by the microfluorometric method described by Vurek and Pegram in “Fluorometric method for the determination of nanogram quantities of inulin,” Anal Biochem 16:409-419 (1966), the contents of which are herein incorporated by reference. […]

[3] = system: remnant kidney (RK) rats; assay: Body weight, food and water intake in remnant kidney rats; settings: for BW / BW Gain (from baseline): End of Week 4
Method: Male Wistar rats (295-340 g) were used to produce rats with remnant kidney (RK) as follows. […] Rats were then assigned to one of four treatment groups: Group 1, RK control rats (n=7); Group 2, RK+febuxostat (Fx) rats (n=8); Group 3, RK+oxonic acid (OA) rats (n=6); and Group 4, RK+OA+Fx (n=10). Oxonic acid (OA) (Sigma-Aldrich, St Louis Mo., USA), administered at 750 mg/kg body weight daily by oral gavage, was given starting the day after the ⅚ nephrectomy. Beginning immediately following the surgery, febuxostat was administered in drinking water at 30 mg/L (3-4 mg/kg/day), whereas the respective controls received only drinking water (with 3.5 mg/L of NaCl added to keep an equivalent salt concentration to the Fx-containing water). All groups were treated for four weeks. Body weight (beginning just before surgery) and food and water intakes were measured daily. Systolic blood pressure, measured in conscious rats by a tail cuff sphygmomanometer, and plasma uric acid (UA) levels were measured at just before surgery (namely, at baseline) and at the end of the four weeks. Proteinuria was measured at baseline and at the end of two and four weeks. A renal micropuncture procedure along with systemic blood pressure monitoring under pentobarbital anesthesia was performed at the end of four weeks followed by morphologic evaluation of the renal preglomerular microvasculature. Food and water intake were determined daily. Systolic blood pressure (SBP) was measured by a tail-cuff sphygmomanometer using an automated system (XBP-100; Kent Scientific Co, Torrington, Conn., USA) in conscious animals. All animals were preconditioned for blood pressure measurements one week before each experiment. Plasma uric acid was quantified using a commercial kit (Diagnostic Chemicals Ltd, Charlottetown, PEI, Canada). Proteinuria was determined by turbidimetry by the method of trichloroacetic acid as described in Henry R J et al., “Turbidimetric determination of proteins with sulfosalicylic and tricholoroacetic acids”, Proc Soc Exp Biol Med 92:748-751 (1956), the contents of which are herein incorporated by reference.

[4] = RK + OA + Fx group (OA-induced hyperuricemia)
[5] = RK rats (RK + Fx or RK + OA group)
[6] = RK + OA + Fx group (OA-induced hyperuricemia), Week 1
[7] = RK + OA + Fx group (OA-induced hyperuricemia), Week 2
[8] = RK + OA + Fx group (OA-induced hyperuricemia), Week 3
[9] = RK + OA + Fx group (OA-induced hyperuricemia), Week 4
[10] = RK rats (RK + Fx or RK + OA group), Week 1
[11] = RK rats (RK + Fx or RK + OA group), Week 2
[12] = RK rats (RK + Fx or RK + OA group), Week 3
[13] = RK rats (RK + Fx or RK + OA group), Week 4

## Cc1nc(-c2ccc(OCC(C)C)c(C#N)c2)sc1C(=O)O [febuxostat, 2-[3-cyano-4-(2-methylpropoxy)phenyl]-4-methylthiazole-5-carboxylic acid]
[1]; RK rats with and without hyperuricemia
  Rise of urinary protein excretion (in words): prevented the rise of urinary protein excretion
[1]; RK+Fx and RK+OA+Fx rats, end of Week 4
  Urinary protein excretion, lower than the values in the respective control groups: 75-80%
[2]; [4]
  GFR: 0.44 ± 0.05 mL/min
  Kf: 0.037 ± 0.004 nL/s · mmHg
  PGC: 52.0 ± 1.2 mmHg
  QA: 151 ± 19 nL/min
  SNGFR: 42.2 ± 4.9 nL/min
  MAP: 172 ± 8 mmHg
[2]; [5]
  GFR: 0.51 ± 0.04 mL/min
  Kf: 0.035 ± 0.005 nL/s · mmHg
  PGC: 52.2 ± 1.9 mmHg
  QA: 142 ± 11 nL/min
  SNGFR: 36.7 ± 3.1 nL/min
  MAP: 189 ± 8 mmHg
[2]; RK+Fx and RK+OA+Fx rats vs the two untreated groups
  GFR (in words): increase GFR compared to the two untreated groups
[2]; RK+Fx and RK+OA+Fx rats, normal glomerular pressure and plasma flow maintained
  Single-nephron hyperfiltration (in words): prevented single-nephron hyperfiltration
[2]; RK+OA+Fx rats vs untreated cohorts
  Afferent arteriolar resistances (in words): higher afferent arteriolar resistances compared to their respective untreated cohorts
[3]; [4]
  BW: 316.7 ± 12.3 g
  BW Gain (from baseline): -3.0 ± 11.5 g
[3]; [6]
  Daily Food Intake: 8.7 ± 1.7 g
  Daily Water Intake: 30.2 ± 2.8 mL
[3]; [7]
  Daily Food Intake: 16.0 ± 0.7 g
  Daily Water Intake: 40.6 ± 2.6 mL
[3]; [8]
  Daily Food Intake: 18.4 ± 0.5 g
  Daily Water Intake: 38.6 ± 1.0 mL
[3]; [9]
  Daily Food Intake: 18.6 ± 0.5 g
  Daily Water Intake: 40.5 ± 1.6 mL
[3]; [5]
  BW: 340.6 ± 10.8 g
  BW Gain (from baseline): 18.4 ± 8.2 g
[3]; [10]
  Daily Food Intake: 8.6 ± 1.5 g
  Daily Water Intake: 31.5 ± 1.4 mL
[3]; [11]
  Daily Food Intake: 15.4 ± 0.5 g
  Daily Water Intake: 32.6 ± 1.2 mL
[3]; [12]
  Daily Food Intake: 20.2 ± 0.5 g
  Daily Water Intake: 37.2 ± 2.5 mL
[3]; [13]
  Daily Food Intake: 22.4 ± 1.3 g
  Daily Water Intake: 39.4 ± 1.6 mL
[3]; RK rats, normal daily water intake 35-40 mL
  Water intake in RK rats during febuxostat treatment (in words): reduced to near normal levels
[3]; end of the study
  Body weight or body weight gain between the four treatment groups (in words): no significant differences in body weight or body weight gain

From US20130143886A1, “METHODS FOR PRESERVING AND/OR INCREASING RENAL FUNCTION USING XANTHINE OXIDOREDUCTASE INHIBITORS” (priority 2006, published 2013)
